Source: patent US11786492B2, “Therapeutic agent for phosphodiesterase inhibition and its related disorders” (Novalead Pharma Inc, priority 2017, dated 2023)
Marks after values point to notes of the source that are not given here. Values belong to the molecule of their own block, whether it stands above or below them.

Assays:
[1] = tested on: PDE4 (Human U937 cells); assay: Radiolabeled enzyme assay PDE4; type: biochemical; conditions: 1.01 μM [3H]cAMP+cAMP
Description: (§1) Enzyme assays have been optimized for incubation time, substrate concentration and method of end-product determination.

[2] = biological target: T1, PDE3 (Human platelets) (Homo sapiens, UniProt Q14432); assay: Radiolabeled enzyme assay PDE3; type: biochemical; conditions: read-out: % inhibition at 30 μM, 1.01 μM [3H]cAMP+cAMP
T1 construct: PDE3 (Human platelets); from tissue; host or cells: human platelets
Description: as §1

[3] = tested on: Human IL-22; assay: IL-22 release from stimulated PBMCs, ELISA; type: cell-based; conditions: PMA+Ionomycin, 18 hrs
Description: (§2) Fresh human blood from healthy volunteer was collected in anticoagulant (5 mM) ethylene diamine tetra acetic acid (EDTA) containing tubes. The growth medium used was RPMI-1640 medium (with 3% FBS) and incubated at 37° C. for 60 mins in a 5% CO2 incubator with vehicle used as 1% DMSO. The cell viability was checked at various time points using Alamar blue and fluorescence readings were taken at excitation of 544 nm and emission of 590 nm.
(§3) PBMCs were stimulated with different stimulators as follows: • a. Cells were exposed to stimulator LPS at 100 ng/mL for 18 hrs to stimulate TNF-α, IL-6, IFN-γ, IL10, IL-1β • b. Cells were exposed to stimulator IFN-γ+LPS at 100 ng/mL+1 μg/mL for 18 hrs to stimulate IL-12 • c. Cells were exposed to stimulator PMA+Ionomycin at 50 ng/mL+1 μg/mL for 18 hrs to stimulate IL-23, IL-22, IL-17A, IL-17F
(§4) After 18 hrs supernatants were collected and centrifuged to remove any cell debris and aliquots were used for ELISA.

[4] = biological target: T2, PDE2 (Human platelets) (Homo sapiens, UniProt O00408); assay: Radiolabeled enzyme assay PDE2; type: biochemical; conditions: read-out: % inhibition at 30 μM, 1.01 μM [3H]cAMP+cAMP
T2 construct: PDE2 (Human platelets); from tissue; host or cells: human platelets
Description: as §1

[5] = tested on: PDE1 (Bovine brain); assay: Radiolabeled enzyme assay PDE1; type: biochemical; conditions: 1.01 μM [3H]cAMP+cAMP
Description: as §1

[6] = biological target: PDE1A (Homo sapiens, UniProt P54750); assay: Fluorescence polarization assay PDE1A; type: biochemical; conditions: substrate cGMP, Ca-CaM
Description: (§5) An experiment to check inhibition of various subtypes of the target Phosphodiesterase (PDE) enzyme in in-vitro assay was performed. […] PDE1A, PDE2A, PDE4A, PDE4B, PDE4C, PDE4D, PDE5A, PDE7A, PDE9A, PDE10A.

[7] = tested on: Human IL-12; assay: IL-12 release from stimulated PBMCs, ELISA; type: cell-based; conditions: IFN-γ+LPS, 18 hrs
Description: as §2, §3, §4

[8] = tested on: Human TNF-α; assay: TNF-α release from stimulated PBMCs, ELISA; type: cell-based; conditions: LPS 100 ng/mL, 18 hrs
Description: as §2, §3, §4

[9] = tested on: Imiquimod induced psoriasis in BALB/c mice; assay: Imiquimod induced psoriasis model in Balb/c mice; conditions: for % inhibition of Ear inflamn. / Histopathology Scores Epidermal Thickness / Histopathology Scores Hyperkeratosis / Histopathology Scores Rete Peg Prolifern. / PASI score / Spleen weight / IL23 Levels (pg/ml): twice daily; for IL23 Levels (pg/ml): ear tissue lysate
Description: BALB/c mice (Sex: Female, Age: 7-8 Weeks) were used for induction of psoriasis using IMQ. Topical application of imiquimod (IMQ) in mice can induce and exacerbate psoriasis closely resembling human psoriasis. […] 3%, 4% and 5% and positive control of Tenovate (Clobetasol) 0.05% cream. In all 63 mg cream containing 5% of IMQ was applied to dorsal area (shaved back) and right ear for 8 days. Topical formulations from Example 7 were used during this experiment.
The parameters investigated were ear thickness change, % inhibition of ear inflammation, Psoriatic Area Severity Index (PASI). Histopathology was performed of right ear and dorsal skin by H & E staining. The biomarker in this study was inflammatory cytokine IL-23 analyzed by ELISA obtained from tissue lysate of ear region where IMQ and doses were applied.

[10] = biological target: T3, PDE5 (Human platelets) (Homo sapiens, UniProt O76074); assay: Radiolabeled enzyme assay PDE5; type: biochemical; conditions: read-out: % inhibition at 30 μM, 1.01 μM [3H]cGMP+cGMP
T3 construct: PDE5 (Human platelets); from tissue; host or cells: human platelets
Description: as §1

[11] = biological target: PDE7A (Homo sapiens, UniProt Q13946); assay: Fluorescence polarization assay PDE7A; type: biochemical; conditions: substrate cAMP
Description: as §5

[12] = biological target: PDE4C (Homo sapiens, UniProt Q08493); assay: Fluorescence polarization assay PDE4C; type: biochemical; conditions: substrate cAMP
Description: as §5

[13] = biological target: PDE5A (Homo sapiens, UniProt O76074); assay: Fluorescence polarization assay PDE5A; type: biochemical; conditions: substrate cGMP
Description: as §5

PDE1A, sequence (P54750 whole entry, species assumed): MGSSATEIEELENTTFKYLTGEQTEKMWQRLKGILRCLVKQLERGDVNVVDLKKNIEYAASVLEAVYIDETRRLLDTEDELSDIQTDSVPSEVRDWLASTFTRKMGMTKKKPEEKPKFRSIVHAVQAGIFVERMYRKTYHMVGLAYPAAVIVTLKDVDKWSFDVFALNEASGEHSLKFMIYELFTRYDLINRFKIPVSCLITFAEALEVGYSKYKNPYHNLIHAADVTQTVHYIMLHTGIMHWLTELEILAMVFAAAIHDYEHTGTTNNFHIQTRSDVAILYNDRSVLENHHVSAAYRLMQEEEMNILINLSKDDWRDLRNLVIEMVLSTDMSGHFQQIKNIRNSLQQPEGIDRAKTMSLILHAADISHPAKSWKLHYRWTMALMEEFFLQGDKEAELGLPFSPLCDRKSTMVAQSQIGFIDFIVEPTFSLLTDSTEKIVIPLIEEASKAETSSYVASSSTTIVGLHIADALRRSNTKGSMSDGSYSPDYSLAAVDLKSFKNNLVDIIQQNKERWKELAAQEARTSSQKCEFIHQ
T2 sequence (O00408 whole entry): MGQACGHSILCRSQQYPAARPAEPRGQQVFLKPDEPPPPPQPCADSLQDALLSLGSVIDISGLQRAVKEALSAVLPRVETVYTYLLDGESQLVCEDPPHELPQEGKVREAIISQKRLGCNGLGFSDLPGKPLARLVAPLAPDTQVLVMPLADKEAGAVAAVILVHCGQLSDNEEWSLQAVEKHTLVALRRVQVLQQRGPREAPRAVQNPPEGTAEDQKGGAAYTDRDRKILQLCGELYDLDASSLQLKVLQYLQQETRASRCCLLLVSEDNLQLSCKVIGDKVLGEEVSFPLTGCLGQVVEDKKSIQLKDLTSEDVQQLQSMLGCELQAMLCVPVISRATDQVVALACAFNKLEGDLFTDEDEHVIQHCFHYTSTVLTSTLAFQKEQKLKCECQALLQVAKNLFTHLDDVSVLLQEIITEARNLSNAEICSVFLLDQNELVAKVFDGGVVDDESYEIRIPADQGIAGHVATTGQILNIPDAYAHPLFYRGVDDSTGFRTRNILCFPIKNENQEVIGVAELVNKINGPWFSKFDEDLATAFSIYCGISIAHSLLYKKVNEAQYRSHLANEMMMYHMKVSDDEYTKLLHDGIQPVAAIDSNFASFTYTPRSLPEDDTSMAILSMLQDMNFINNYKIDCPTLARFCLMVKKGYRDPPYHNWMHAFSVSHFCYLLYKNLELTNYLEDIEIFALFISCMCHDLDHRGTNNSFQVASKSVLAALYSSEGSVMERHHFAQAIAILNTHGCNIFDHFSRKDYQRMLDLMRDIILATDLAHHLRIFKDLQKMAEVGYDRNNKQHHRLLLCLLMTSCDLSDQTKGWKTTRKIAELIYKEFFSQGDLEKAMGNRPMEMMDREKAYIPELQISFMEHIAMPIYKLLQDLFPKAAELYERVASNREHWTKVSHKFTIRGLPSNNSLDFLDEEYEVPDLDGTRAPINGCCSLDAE
T1 sequence (Q14432 whole entry): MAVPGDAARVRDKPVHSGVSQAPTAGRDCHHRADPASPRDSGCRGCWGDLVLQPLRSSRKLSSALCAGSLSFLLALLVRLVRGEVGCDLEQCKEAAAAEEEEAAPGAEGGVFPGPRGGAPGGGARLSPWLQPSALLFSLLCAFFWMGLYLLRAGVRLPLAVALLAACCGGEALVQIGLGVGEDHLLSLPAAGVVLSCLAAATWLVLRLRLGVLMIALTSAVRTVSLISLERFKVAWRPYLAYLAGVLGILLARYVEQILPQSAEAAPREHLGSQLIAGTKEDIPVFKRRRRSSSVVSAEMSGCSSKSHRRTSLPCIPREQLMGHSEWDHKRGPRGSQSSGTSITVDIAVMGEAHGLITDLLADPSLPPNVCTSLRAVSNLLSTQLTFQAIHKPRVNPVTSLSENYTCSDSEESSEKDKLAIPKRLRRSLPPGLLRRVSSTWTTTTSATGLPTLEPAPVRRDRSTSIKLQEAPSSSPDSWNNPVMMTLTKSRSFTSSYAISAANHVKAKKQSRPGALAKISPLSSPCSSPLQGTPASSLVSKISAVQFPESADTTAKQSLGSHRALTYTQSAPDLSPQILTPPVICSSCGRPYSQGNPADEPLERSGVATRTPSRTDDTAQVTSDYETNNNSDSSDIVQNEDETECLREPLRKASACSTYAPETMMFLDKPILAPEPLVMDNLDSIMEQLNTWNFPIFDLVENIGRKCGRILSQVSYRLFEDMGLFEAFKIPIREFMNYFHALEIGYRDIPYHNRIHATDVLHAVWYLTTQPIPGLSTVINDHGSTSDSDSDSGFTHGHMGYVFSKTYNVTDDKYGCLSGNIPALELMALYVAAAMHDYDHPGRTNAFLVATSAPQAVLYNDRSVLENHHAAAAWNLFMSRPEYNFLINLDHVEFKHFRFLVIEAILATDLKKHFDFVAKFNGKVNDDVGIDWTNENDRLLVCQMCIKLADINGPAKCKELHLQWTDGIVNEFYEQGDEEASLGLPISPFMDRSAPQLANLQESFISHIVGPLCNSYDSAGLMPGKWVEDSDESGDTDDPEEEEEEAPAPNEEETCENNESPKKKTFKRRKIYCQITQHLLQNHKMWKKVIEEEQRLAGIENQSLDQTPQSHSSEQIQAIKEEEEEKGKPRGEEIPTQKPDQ
PDE7A, sequence (Q13946 whole entry, species assumed): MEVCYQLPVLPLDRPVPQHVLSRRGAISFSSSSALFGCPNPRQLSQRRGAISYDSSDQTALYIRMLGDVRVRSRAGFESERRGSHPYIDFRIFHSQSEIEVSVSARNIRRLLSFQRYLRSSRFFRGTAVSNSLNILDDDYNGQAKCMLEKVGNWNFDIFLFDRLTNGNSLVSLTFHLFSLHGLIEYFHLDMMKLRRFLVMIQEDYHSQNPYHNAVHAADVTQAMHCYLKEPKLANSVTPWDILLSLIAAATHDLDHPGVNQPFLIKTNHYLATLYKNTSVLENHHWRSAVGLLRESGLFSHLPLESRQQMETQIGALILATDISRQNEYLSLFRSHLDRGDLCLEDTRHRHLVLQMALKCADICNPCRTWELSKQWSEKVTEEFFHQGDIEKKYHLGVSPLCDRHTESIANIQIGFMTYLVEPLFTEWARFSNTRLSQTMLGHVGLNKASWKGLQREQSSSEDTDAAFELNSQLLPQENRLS
PDE4C, sequence (Q08493 whole entry, species assumed): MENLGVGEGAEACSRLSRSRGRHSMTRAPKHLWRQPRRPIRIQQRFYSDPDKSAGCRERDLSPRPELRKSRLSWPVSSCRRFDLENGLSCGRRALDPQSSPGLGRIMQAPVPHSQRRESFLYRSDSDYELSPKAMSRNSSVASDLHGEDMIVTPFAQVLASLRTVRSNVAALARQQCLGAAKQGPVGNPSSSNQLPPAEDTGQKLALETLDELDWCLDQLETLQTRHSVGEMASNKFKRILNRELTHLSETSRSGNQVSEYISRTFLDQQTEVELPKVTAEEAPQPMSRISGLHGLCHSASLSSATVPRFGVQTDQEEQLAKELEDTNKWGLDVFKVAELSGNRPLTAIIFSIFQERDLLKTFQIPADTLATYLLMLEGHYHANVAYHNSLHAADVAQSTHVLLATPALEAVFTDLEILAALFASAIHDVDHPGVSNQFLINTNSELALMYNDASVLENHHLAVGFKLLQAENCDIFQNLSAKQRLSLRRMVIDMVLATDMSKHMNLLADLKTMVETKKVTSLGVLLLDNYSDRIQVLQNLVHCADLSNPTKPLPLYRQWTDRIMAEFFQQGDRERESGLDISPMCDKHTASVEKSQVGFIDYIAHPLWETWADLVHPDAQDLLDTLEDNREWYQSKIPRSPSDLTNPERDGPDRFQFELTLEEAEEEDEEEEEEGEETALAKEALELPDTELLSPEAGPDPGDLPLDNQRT

inhibition at 30 µM [2]: -4%
inhibition at 30 µM [4]: 13%
% inhibition at 30 μM [5]: 18%
IC50 [6]: 137 µM
inhibition at 30 µM [10]: 9%
SMILES: CC(=O)Oc1ccccc1C(=O)Nc1ncc([N+](=O)[O-])s1 [Nitazoxanide]
% inhibition at 30 μM [1]: 89%
Human IL-22 concentration ([3]; 1 μM): 5612 pg/mL
Human IL-22 concentration ([3]; 10 μM): 1093 pg/mL
Human IL-22 concentration ([3]; 25 μM): 228 pg/mL
Human IL-22 concentration ([3]; 50 μM): 0 pg/mL
Human IL-12 concentration ([7]; 1 μM): 3892 pg/mL
Human IL-12 concentration ([7]; 10 μM): 1500 pg/mL
Human IL-12 concentration ([7]; 25 μM): 406 pg/mL
Human IL-12 concentration ([7]; 50 μM): 101 pg/mL
Human TNF-α concentration ([8]; 1 μM): 5708 pg/mL
Human TNF-α concentration ([8]; 10 μM): 3472 pg/mL
Human TNF-α concentration ([8]; 25 μM): 3679 pg/mL
Human TNF-α concentration ([8]; 50 μM): 2896 pg/mL
% inhibition of Ear inflamn. ([9]; 3% topical): −5.9%
Histopathology Scores Epidermal Thickness ([9]; 3% topical): 5.6 ± 0.4
Histopathology Scores Hyperkeratosis ([9]; 3% topical): 1.0 ± 0.0^$
Histopathology Scores Rete Peg Prolifern. ([9]; 3% topical): 1.2 ± 0.2
PASI score ([9]; 3% topical): 14.2 ± 5.1
Spleen weight ([9]; 3% topical, Day 9): 203.6 ± 22.6 mg
IL23 Levels (pg/ml) ([9]; 3% topical): 147.79^# pg/ml
% inhibition of Ear inflamn. ([9]; 4% topical): 26.1%
Histopathology Scores Epidermal Thickness ([9]; 4% topical): 4.7 ± 0.3
Histopathology Scores Hyperkeratosis ([9]; 4% topical): 1.3 ± 0.2
Histopathology Scores Rete Peg Prolifern. ([9]; 4% topical): 1.0 ± 0.3
PASI score ([9]; 4% topical): 21.5 ± 3.4
Spleen weight ([9]; 4% topical, Day 9): 274.7 ± 54.3 mg
IL23 Levels (pg/ml) ([9]; 4% topical): 128.67* pg/ml
% inhibition of Ear inflamn. ([9]; 5% topical): 40.9%
Histopathology Scores Epidermal Thickness ([9]; 5% topical): 5.3 ± 0.6
Histopathology Scores Hyperkeratosis ([9]; 5% topical): 1.1 ± 0.1
Histopathology Scores Rete Peg Prolifern. ([9]; 5% topical): 1.1 ± 0.1
PASI score ([9]; 5% topical): 13.1 ± 1.6
Spleen weight ([9]; 5% topical, Day 9): 204.1 ± 15.3 mg
IL23 Levels (pg/ml) ([9]; 5% topical): 89.45* pg/ml
Spleen weight vs disease control (in words) ([9]; Niclosamide 2%, Nitazoxanide 3% and 5%, Clobetasol 0.05%, Day 9): marginal reduction in spleen weight
IL-23 level in ear tissue homogenates (in words) ([9]; different doses): reduction of IL-23 level
Hyperkeratosis (in words) ([9]; ear lobe histopathology): significant reduction in Hyperkeratosis

IC50 [11]: 134 µM
IC50 [6]: 96.1 µM
IC50 [12]: 366 µM
IC50 [13]: 136 µM
SMILES: O=C(Nc1ncc([N+](=O)[O-])s1)c1ccccc1O [Tizoxanide]
Human IL-22 concentration ([3]; 1 μM): 7858 pg/mL
Human IL-22 concentration ([3]; 10 μM): 1189 pg/mL
Human IL-22 concentration ([3]; 25 μM): 280 pg/mL
Human IL-22 concentration ([3]; 50 μM): 0 pg/mL
Human IL-12 concentration ([7]; 1 μM): 4715 pg/mL
Human IL-12 concentration ([7]; 10 μM): 1401 pg/mL
Human IL-12 concentration ([7]; 25 μM): 381 pg/mL
Human IL-12 concentration ([7]; 50 μM): 101 pg/mL
Human TNF-α concentration ([8]; 1 μM): 5351 pg/mL
Human TNF-α concentration ([8]; 10 μM): 3244 pg/mL
Human TNF-α concentration ([8]; 25 μM): 3489 pg/mL
Human TNF-α concentration ([8]; 50 μM): 2440 pg/mL
